From patent publication US6777425B2, “Isoquinoline compounds having antiinfective activity” (Genesoft Pharmaceuticals, Inc., priority 2001, dated 2004)

Columns and labels:
B. cereus ATCC 11778 = test: NCCLS broth microdilution MIC, B. cereus; type: cell-based, Bacillus cereus; conditions: organism A = B. cereus ATCC 11778; for MIC: Bacillus cereus, ATCC11778, read-out: Minimum Inhibitory Concentration (MIC)
Text: (§1) Compounds according to this invention were screened for their in vitro activities against selected species of bacteria and fungi. […]

C. albicans ATCC 38247 = test: Antifungal MIC, C. albicans; type: cell-based, Candida albicans; conditions: organism B = C. albicans ATCC 38247; for MIC: Candida albicans, ATCC38247, read-out: Minimum Inhibitory Concentration (MIC)
Text: as §1

E. faecalis ATCC 29212 = test: NCCLS broth microdilution MIC, E. faecalis; type: cell-based; conditions: organism C = E. faecalis ATCC 29212; for MIC: Enterococcus faecalis, ATCC29212, read-out: Minimum Inhibitory Concentration (MIC)
Text: as §1

S. aureus ATCC 13709 = test: NCCLS broth microdilution MIC, S. aureus (MSSA); type: cell-based, Staphylococcus aureus; conditions: organism E = S. aureus ATCC 13709 (MSSA); for MIC: Staphylococcus aureus, read-out: Minimum Inhibitory Concentration (MIC)
Text: as §1

S. aureus ATCC 27660 = test: NCCLS broth microdilution MIC, S. aureus (MRSA); type: cell-based, Staphylococcus aureus; conditions: organism F = S. aureus ATCC 27660 (MRSA); for MIC: Staphylococcus aureus, read-out: Minimum Inhibitory Concentration (MIC)
Text: as §1

S. pneumoniae ATCC 49619 = test: NCCLS broth microdilution MIC, S. pneumoniae ATCC 49619; type: cell-based, Streptococcus pneumoniae; conditions: organism H = S. pneumoniae ATCC 49619; for MIC: Streptococcus pneumoniae, ATCC49619, read-out: Minimum Inhibitory Concentration (MIC)
Text: as §1

Row | Structure (SMILES) | Minimum Inhibitory Concentration (MIC) (B. cereus ATCC 11778) | Minimum Inhibitory Concentration (MIC) (C. albicans ATCC 38247) | Minimum Inhibitory Concentration (MIC) (E. faecalis ATCC 29212) | Minimum Inhibitory Concentration (MIC) (S. aureus ATCC 13709) | Minimum Inhibitory Concentration (MIC) (S. aureus ATCC 27660) | Minimum Inhibitory Concentration (MIC) (S. pneumoniae ATCC 49619) | MIC (B. cereus ATCC 11778) | MIC (C. albicans ATCC 38247) | MIC (E. faecalis ATCC 29212) | MIC (S. aureus ATCC 13709) | MIC (S. aureus ATCC 27660) | MIC (S. pneumoniae ATCC 49619)
1 | Cn1cc(NC(=O)c2cc(NC(=O)c3cc(NC(=O)c4cc5ccccc5cn4)c[nH]3)cn2C)cc1C(=O)NCCc1ccncc1 [Ib-76] | +++ (+++ = MIC ≦ 4) | >32 µg/mL | +++ (+++ = MIC ≦ 4) | +++ (+++ = MIC ≦ 4) | +++ (+++ = MIC ≦ 4) | +++ (+++ = MIC ≦ 4) |  |  |  |  |  | 
2 | CC1CN(CCNC(=O)c2cc(NC(=O)c3ccc(NC(=O)c4cc(NC(=O)c5cc6ccccc6cn5)cn4C)cc3)cn2C)CC(C)O1 (stereo not shown) [Ic-17] | +++ (+++ = MIC ≦ 4) | >32 µg/mL | +++ (+++ = MIC ≦ 4) | +++ (+++ = MIC ≦ 4) | +++ (+++ = MIC ≦ 4) | +++ (+++ = MIC ≦ 4) |  |  |  |  |  | 
3 | Cn1cc(NC(=O)c2cc(NC(=O)c3cc(NC(=O)c4cc5ccccc5cn4)cn3C)cn2CCN2CCOCC2)cc1C(=O)NCCN1CCOCC1 [Ib-57] | +++ (+++ = MIC ≦ 4) | >32 µg/mL | +++ (+++ = MIC ≦ 4) | +++ (+++ = MIC ≦ 4) | +++ (+++ = MIC ≦ 4) | +++ (+++ = MIC ≦ 4) |  |  |  |  |  | 
4 | Cn1cc(NC(=O)c2cc(NC(=O)c3cc(NC(=O)c4nccc5ccccc45)cn3C)cn2C)cc1C(=O)NCCN1CCOCC1 [Ib-1] | +++ (+++ = MIC ≦ 4) | >32 µg/mL | +++ (+++ = MIC ≦ 4) |  |  | +++ (+++ = MIC ≦ 4) |  |  |  |  |  | 
5 | CCN(CC)CCNC(=O)c1cc(NC(=O)c2cc(NC(=O)c3cc(NC(=O)c4cc5ccccc5cn4)cn3C)c[nH]2)cn1C [Ib-89] | +++ (+++ = MIC ≦ 4) | + (+ = 12 ≦ MIC ≦ 32) | +++ (+++ = MIC ≦ 4) | +++ (+++ = MIC ≦ 4) | +++ (+++ = MIC ≦ 4) | +++ (+++ = MIC ≦ 4) |  |  |  |  |  | 
6 | CN(C)CCSCCn1cc(NC(=O)c2cc3ccccc3cn2)cc1C(=O)Nc1cc(C(=O)Nc2cc(C(=O)NCCN3CCSCC3)n(C)c2)n(C)c1 [Ib-80] | +++ (+++ = MIC ≦ 4) | +++ (+++ = MIC ≦ 4) | +++ (+++ = MIC ≦ 4) | +++ (+++ = MIC ≦ 4) | +++ (+++ = MIC ≦ 4) | +++ (+++ = MIC ≦ 4) |  |  |  |  |  | 
7 | Cn1cc(NC(=O)c2ccc(NC(=O)c3cc(NC(=O)c4cc5ccccc5cn4)cn3C)cc2)cc1C(=O)NCCCN1CCOCC1 [Ic-11] | >32 µg/mL | >32 µg/mL | +++ (+++ = MIC ≦ 4) | +++ (+++ = MIC ≦ 4) | +++ (+++ = MIC ≦ 4) | +++ (+++ = MIC ≦ 4) |  |  |  |  |  | 
8 | Cn1cc(NC(=O)c2cc(NC(=O)c3cc(NC(=O)c4cc5ccccc5cn4)c[nH]3)cn2C)cc1C(=O)NCCN1CCC(F)CC1 [Ib-71] | +++ (+++ = MIC ≦ 4) | >32 µg/mL | +++ (+++ = MIC ≦ 4) | +++ (+++ = MIC ≦ 4) | +++ (+++ = MIC ≦ 4) | +++ (+++ = MIC ≦ 4) |  |  |  |  |  | 
9 | CN(C)CCCNC(=O)c1cc(NC(=O)c2ccc(NC(=O)c3cc(NC(=O)c4cc5ccccc5cn4)cn3C)cc2)cn1C [Ic-15] | >32 µg/mL | >32 µg/mL | >32 µg/mL | +++ (+++ = MIC ≦ 4) | +++ (+++ = MIC ≦ 4) | +++ (+++ = MIC ≦ 4) |  |  |  |  |  | 
10 | Cn1cc(NC(=O)c2cc(NC(=O)c3cc(NC(=O)c4cc5ccccc5cn4)c[nH]3)cn2C)cc1C(=O)NCCc1ccccn1 [Ib-69] | +++ (+++ = MIC ≦ 4) | >32 µg/mL | +++ (+++ = MIC ≦ 4) | +++ (+++ = MIC ≦ 4) | +++ (+++ = MIC ≦ 4) | +++ (+++ = MIC ≦ 4) |  |  |  |  |  | 
11 | Cn1cc(NC(=O)c2cc3ccccc3cn2)cc1C(=O)Nc1cc(C(=O)Nc2ccc3sc(C(=O)NCCN4CCOCC4)cc3c2)n(C)c1 [Id-1] |  |  |  |  |  |  | < 4 µg/mL | > 32 µg/mL | < 4 µg/mL | < 4 µg/mL | < 4 µg/mL | < 4 µg/mL
12 | CN(C)CCSCCn1cc(NC(=O)c2cc3ccccc3cn2)cc1C(=O)Nc1cc(C(=O)Nc2ccc3cnccc3c2)n(C)c1 [Ib-73] | +++ (+++ = MIC ≦ 4) | +++ (+++ = MIC ≦ 4) | +++ (+++ = MIC ≦ 4) | +++ (+++ = MIC ≦ 4) | +++ (+++ = MIC ≦ 4) | +++ (+++ = MIC ≦ 4) |  |  |  |  |  | 

The remaining lines, values ahead:

Row | Minimum Inhibitory Concentration (MIC) (B. cereus ATCC 11778) | Minimum Inhibitory Concentration (MIC) (C. albicans ATCC 38247) | Minimum Inhibitory Concentration (MIC) (E. faecalis ATCC 29212) | Minimum Inhibitory Concentration (MIC) (S. aureus ATCC 13709) | Minimum Inhibitory Concentration (MIC) (S. aureus ATCC 27660) | Minimum Inhibitory Concentration (MIC) (S. pneumoniae ATCC 49619) | MIC (B. cereus ATCC 11778) | MIC (C. albicans ATCC 38247) | MIC (E. faecalis ATCC 29212) | MIC (S. aureus ATCC 13709) | MIC (S. aureus ATCC 27660) | MIC (S. pneumoniae ATCC 49619) | Structure (SMILES)
13 | +++ (+++ = MIC ≦ 4) | >32 µg/mL | +++ (+++ = MIC ≦ 4) | +++ (+++ = MIC ≦ 4) | +++ (+++ = MIC ≦ 4) | +++ (+++ = MIC ≦ 4) |  |  |  |  |  |  | Cn1cc(NC(=O)c2cc(NC(=O)c3cc4ccccc4cn3)cn2CCCN2CCCC2)cc1C(=O)Nc1ccc2cnccc2c1 [Ib-91]
14 | +++ (+++ = MIC ≦ 4) | >32 µg/mL | +++ (+++ = MIC ≦ 4) | +++ (+++ = MIC ≦ 4) | +++ (+++ = MIC ≦ 4) | +++ (+++ = MIC ≦ 4) |  |  |  |  |  |  | COCn1cc(NC(=O)c2cc3ccccc3cn2)cc1C(=O)Nc1cc(C(=O)Nc2cc(C(=O)NCCN3CCOCC3)n(C)c2)n(C)c1 [Ib-72]
15 | +++ (+++ = MIC ≦ 4) | >32 µg/mL | +++ (+++ = MIC ≦ 4) | +++ (+++ = MIC ≦ 4) | +++ (+++ = MIC ≦ 4) | +++ (+++ = MIC ≦ 4) |  |  |  |  |  |  | Cc1cc(NC(=O)c2cc(NC(=O)c3cc(NC(=O)c4cc5ccccc5cn4)cn3C)cn2CCN2CCCC2)sn1 [Ib-65]
16 |  |  |  |  |  |  | < 4 µg/mL | > 32 µg/mL | < 4 µg/mL | < 4 µg/mL | < 4 µg/mL | < 4 µg/mL | Cn1cc(NC(=O)c2cc(NC(=O)c3cc(NC(=O)c4cc5ccccc5cn4)c[nH]3)cn2C)cc1C(=O)NCCN1CCSCC1 [Ib-75]
17 | >32 µg/mL | >32 µg/mL | >32 µg/mL | >32 µg/mL | >32 µg/mL | >32 µg/mL |  |  |  |  |  |  | CC(=O)[O-].Cc1cc(NC(=O)c2cc(NC(=O)c3cc(NC(=O)c4cc5ccccc5cn4)cn3C)cn2CCC[N+](C)(C)C)sn1 [Ib-74]
18 | +++ (+++ = MIC ≦ 4) | >32 µg/mL | +++ (+++ = MIC ≦ 4) | +++ (+++ = MIC ≦ 4) | +++ (+++ = MIC ≦ 4) | +++ (+++ = MIC ≦ 4) |  |  |  |  |  |  | Cn1cc(NC(=O)c2ccc(NC(=O)c3cc(NC(=O)c4cc5ccccc5cn4)cn3C)cc2)cc1C(=O)NCCN1CCCC1 [Ic-10]
19 | +++ (+++ = MIC ≦ 4) | >32 µg/mL | +++ (+++ = MIC ≦ 4) | +++ (+++ = MIC ≦ 4) | +++ (+++ = MIC ≦ 4) | +++ (+++ = MIC ≦ 4) |  |  |  |  |  |  | Cc1cc(NC(=O)c2cc(NC(=O)c3nc(NC(=O)c4cc5ccccc5cn4)cn3C)cn2CCN2CCOCC2)sn1 [Ib-77]
20 | +++ (+++ = MIC ≦ 4) | + (+ = 12 ≦ MIC ≦ 32) | +++ (+++ = MIC ≦ 4) | +++ (+++ = MIC ≦ 4) | +++ (+++ = MIC ≦ 4) | +++ (+++ = MIC ≦ 4) |  |  |  |  |  |  | CN(C)CCCn1cc(NC(=O)c2cc(NC(=O)c3cc4ccccc4cn3)cn2C)cc1C(=O)Nc1cc(C(=O)NCCN2CCOCC2)n(C)c1 [Ib-81]
21 | +++ (+++ = MIC ≦ 4) | >32 µg/mL | +++ (+++ = MIC ≦ 4) | +++ (+++ = MIC ≦ 4) | +++ (+++ = MIC ≦ 4) | +++ (+++ = MIC ≦ 4) |  |  |  |  |  |  | Cc1cc(NC(=O)c2cc(NC(=O)c3cc(NC(=O)c4cc5ccccc5cn4)cn3C)cn2CCN2CCOCC2)sn1 [Ib-63]
